This note sets out measurements from patent publication US20250145594A1, “MODULATORS OF THE INTEGRATED STRESS PATHWAY” (Calico Life Sciences LLC, priority 2020, published 2025).

As a reminder, the EC50 is the concentration needed to bring the measured effect to its halfway point.

The first test relates to ATF4 luciferase reporter in HEK293T cells. The experiment in a line: ATF4-Luc assay (in vitro model of VWMD). Format: cell-based, human. The settings on record: HEK293T cells carrying the ATF4 luciferase reporter, 1 μg/mL tunicamycin, 7 hours, One Glo luminescence. The procedure:
In order to test exemplary compounds of the invention in a cellular context, a stable VWMD cell line was first constructed. The ATF4 reporter was prepared by fusing the human full-length ATF4 5′-UTR (NCBI Accession No. BC022088.2) in front of the firefly luciferase (FLuc) coding sequence lacking the initiator methionine as described in Sidrauski et al (eLife 2013). The construct was used to produce recombinant retroviruses using standard methods and the resulting viral supernatant was used to transduce HEK293T cells, which were then subsequently selected with puromycin to generate a stable cell line.
HEK293T cells carrying the ATF4 luciferase reporter were plated on polylysine coated 384-well plates (Greiner Bio-one) at 30,000 cells per well. Cells were treated the next day with 1 μg/mL tunicamycin and 200 nM of a compound of Formula (I) for 7 hours. Luminescence was measured using One Glo (Promega) as specified by the manufacturer. Cells were maintained in DMEM with L-glutamine supplemented with 10% heat-inactivated FBS (Gibco) and Antibiotic-Antimycotic solution (Gibco).
Table 4 below summarizes the EC50 data obtained using the ATF4-Luc assay for exemplary compounds of the invention.
A general note: Reporter assays use an easily measured gene product as a stand-in for the process of interest.
Take `O=C(CO[C@H]1C[C@@H](OC(F)(F)F)C1)NC12CC(NC(=O)[C@@H]3CC(O)c4cc(Cl)ccc4O3)(C1)C2` (stereo in doubt) [Compound 295, (2S,4S)-6-chloro-4-hydroxy-N-[3-(2-{[cis-3-(trifluoromethoxy)cyclobutyl]oxy}acetamido)bicyclo[1.1.1]pentan-1-yl]-3,4-dihydro-2H-1-benzopyran-2-carboxamide]: the EC50 fell in the range of 10 to 50 nM.

The test is the same for the next values; noted with them: Homo sapiens, HEK-293T, 7 h, HEK293T cells carrying the ATF4 luciferase reporter, 1 μg/mL tunicamycin, One Glo luminescence.
Turning to `O=C(N[C@H]1C[C@H]2O[C@@H]1C[C@@H]2c1nnc([C@H]2C[C@@H](OC(F)(F)F)C2)o1)[C@@H]1C[C@H](O)c2cc(Cl)ccc2O1` (mixture of isomers) [Compound 186, (2S,4S)-6-chloro-4-hydroxy-N-[(1RS,2SR,4RS,5SR)-5-{5-[cis-3-(trifluoromethoxy)cyclobutyl]-1,3,4-oxadiazol-2-yl}-7-oxabicyclo[2.2.1]heptan-2-yl]-3,4-dihydro-2H-1-benzopyran-2-carboxamide], the EC50 lay within 10 to 50 nM.
The same measure, in the same setting: the result for `O=C(NC12CC(n3cc([C@@H]4C[C@H]4COC(F)(F)F)cn3)(C1)C2)[C@H]1C[C@@H](O)c2cc(Cl)ccc2O1` (mixture of isomers) [Compound 372, (2R,4R)-6-chloro-4-hydroxy-N-[3-(4-{(1RS,2RS)-2-[(trifluoromethoxy)methyl]cyclopropyl}-1H-pyrazol-1-yl)bicyclo[1.1.1]pentan-1-yl]-3,4-dihydro-2H-1-benzopyran-2-carboxamide] reads 10 to 50 nM.
On the same count and under the same terms, the result for `O=C(NC12CC(n3cc([C@@H]4CC[C@@H](OC(F)(F)F)C4)nn3)(C1)C2)[C@H]1C[C@@H](O)c2cc(Cl)ccc2O1` (mixture of isomers) [Compound 538, (2R,4R)-6-chloro-4-hydroxy-N-(3-{4-[(1RS,3RS)-3-(trifluoromethoxy)cyclopentyl]-1H-1,2,3-triazol-1-yl}bicyclo[1.1.1]pentan-1-yl)-3,4-dihydro-2H-1-benzopyran-2-carboxamide] reads < 10 nM; that for `O=C(NC12CC(n3cc([C@@H]4CC[C@H](OC(F)(F)F)C4)nn3)(C1)C2)[C@H]1C[C@@H](O)c2cc(Cl)ccc2O1` (mixture of isomers) [Compound 539, (2R,4R)-6-chloro-4-hydroxy-N-(3-{4-[(1RS,3SR)-3-(trifluoromethoxy)cyclopentyl]-1H-1,2,3-triazol-1-yl}bicyclo[1.1.1]pentan-1-yl)-3,4-dihydro-2H-1-benzopyran-2-carboxamide], 10 to 50 nM.
On the same count and under the same terms, the result for `O=C(NC12CC(n3cc([C@@H]4C[C@H]4COC(F)(F)F)nn3)(C1)C2)[C@H]1C[C@@H](O)c2cc(Cl)ccc2O1` (mixture of isomers) [Compound 542, (2R,4R)-6-chloro-4-hydroxy-N-[3-(4-{(1RS,2RS)-2-[(trifluoromethoxy)methyl]cyclopropyl}-1H-1,2,3-triazol-1-yl)bicyclo[1.1.1]pentan-1-yl]-3,4-dihydro-2H-1-benzopyran-2-carboxamide] reads < 10 nM; that for `CCOC(=O)OC[C@@H]1C[C@H]1c1cn(C23CC(NC(=O)[C@H]4C[C@@H](O)c5cc(Cl)ccc5O4)(C2)C3)nn1` (mixture of isomers) [Compound 543, ((1RS,2RS)-2-[1-(3-{[(2R,4R)-6-chloro-4-hydroxy-3,4-dihydro-2H-1-benzopyran-2-carbonyl]amino}bicyclo[1.1.1]pentan-1-yl)-1H-1,2,3-triazol-4-yl]cyclopropyl)methyl ethyl carbonate], < 10 nM.
In the case of `O=C(CO[C@H]1C[C@@H](OC(F)(F)F)C1)NC12CC(NC(=O)[C@H]3C[C@@H](O)c4cc(Cl)ccc4O3)(C1)C2` (racemic) [Compound 114, rac-(2R,4R)-6-chloro-4-hydroxy-N-[3-(2-{[(1s,3s)-3-(trifluoromethoxy)cyclobutyl]oxy}acetamido)bicyclo[1.1.1]pentan-1-yl]-3,4-dihydro-2H-1-benzopyran-2-carboxamide], the concentration giving a half-maximal response (EC50) was < 10 nM.
As to `O=C(COc1ccc(Cl)c(F)c1)N[C@H]1C[C@H]2O[C@@H]1CC2c1nnc([C@H]2C[C@@H](OC(F)(F)F)C2)o1` (mixture of isomers) [Compound 168, 2-(4-chloro-3-fluorophenoxy)-N-[rac-(1R,2S,4R,5S)-5-{5-[cis-3-(trifluoromethoxy)cyclobutyl]-1,3,4-oxadiazol-2-yl}-7-oxabicyclo[2.2.1]heptan-2-yl]acetamide], the EC50 lay in the range of 250 to 500 nM.
For `O=C(NCc1ccc(C(F)(F)F)cn1)[C@H]1C[C@H]2O[C@@H]1CC2NC(=O)[C@H]1C[C@@H](O)c2cc(Cl)ccc2O1` (mixture of isomers) [Compound 313, (2R,4R)-6-chloro-4-hydroxy-N-[(1RS,2SR,4RS,5SR)-5-({[5-(trifluoromethyl)pyridin-2-yl]methyl}carbamoyl)-7-oxabicyclo[2.2.1]heptan-2-yl]-3,4-dihydro-2H-1-benzopyran-2-carboxamide], the EC50 fell in the range of 250 to 500 nM.
Still for that read-out and setting: in the case of `O=C(NC12CC(n3cc(-c4ccc(OC(F)(F)F)cn4)cn3)(C1)C2)[C@H]1C[C@@H](O)c2cc(F)ccc2O1` (racemic) [Compound 552, rac-(2R,4R)-6-fluoro-4-hydroxy-N-(3-{4-[5-(trifluoromethoxy)pyridin-2-yl]-1H-pyrazol-1-yl}bicyclo[1.1.1]pentan-1-yl)-3,4-dihydro-2H-1-benzopyran-2-carboxamide] it was < 10 nM.
The same measure, in the same setting: in the case of `O=C(NC12CC(n3cc(O[C@H]4CC[C@H](OC(F)(F)F)C4)cn3)(C1)C2)[C@H]1C[C@@H](O)c2cc(Cl)ccc2O1` (racemic) [Compound 586, (2R,4R)-6-chloro-4-hydroxy-N-[3-(4-{[(1RS,3RS)-3-(trifluoromethoxy)cyclopentyl]oxy}-1H-pyrazol-1-yl)bicyclo[1.1.1]pentan-1-yl]-3,4-dihydro-2H-1-benzopyran-2-carboxamide] it was 10 to 50 nM; in that of `COc1ccc2nn(C34CC(NC(=O)[C@H]5C[C@@H](O)c6cc(C(F)(F)F)c(F)cc6O5)(C3)C4)cc2n1` (racemic) [Compound 655, rac-(2R,4R)-7-fluoro-4-hydroxy-N-[3-(5-methoxy-2H-pyrazolo[4,3-b]pyridin-2-yl)bicyclo[1.1.1]pentan-1-yl]-6-(trifluoromethyl)-3,4-dihydro-2H-1-benzopyran-2-carboxamide], < 10 nM; in that of `O=C(NC12CC(n3cc([C@H]4CC[C@@H](OC(F)(F)F)C4)nn3)(C1)C2)[C@H]1C[C@@H](O)c2cc(Cl)ccc2O1` (relative stereo) [Compound 540, (2R,4R)-6-chloro-4-hydroxy-N-(3-{4-[(1S*,3R*)-3-(trifluoromethoxy)cyclopentyl]-1H-1,2,3-triazol-1-yl}bicyclo[1.1.1]pentan-1-yl)-3,4-dihydro-2H-1-benzopyran-2-carboxamide], 10 to 50 nM.
Consider `O=C(CO[C@H]1C[C@@H](OC(F)(F)F)C1)NC12CCC(NC(=O)[C@@H]3C[C@@H](O)c4cc(Cl)ccc4O3)(CC1)C[C@@H]2O` (single isomer, unassigned) [Compound 279], for which the concentration for a half-maximal effect (EC50) was < 10 nM.
On to `O=C(CO[C@H]1C[C@@H](OC(F)(F)F)C1)NC12CC(NC(=O)[C@H]3CC(O)c4cc(Cl)ccc4O3)(C1)C2` (single isomer, unassigned) [Compound 293], for which the EC50 is < 10 nM.
The same measure, in the same setting: in the case of `O=C(NC12CC(n3cc(-c4ccc(OC(F)(F)F)cn4)cn3)(C1)C2)[C@H]1C[C@@H](O)c2cc(F)ccc2O1` (single isomer, unassigned) [Compound 475] it was < 10 nM; in that of `O=C(NC12CC(n3cc(CCCOC(F)(F)F)cn3)(C1)C2)[C@H]1CC(O)c2cc(Cl)ccc2O1` (stereo in doubt) [Compound 463, (2R,4R)-6-chloro-4-hydroxy-N-(3-{4-[3-(trifluoromethoxy)propyl]-1H-pyrazol-1-yl}bicyclo[1.1.1]pentan-1-yl)-3,4-dihydro-2H-1-benzopyran-2-carboxamide], < 10 nM.
Still for that read-out and setting: in the case of `O=C(NC12CC(n3cc(OCCCC(F)(F)F)cn3)(C1)C2)[C@H]1CC(O)c2cc(Cl)c(F)cc2O1` (stereo in doubt) [Compound 464, (2R,4R)-6-chloro-7-fluoro-4-hydroxy-N-{3-[4-(4,4,4-trifluorobutoxy)-1H-pyrazol-1-yl]bicyclo[1.1.1]pentan-1-yl}-3,4-dihydro-2H-1-benzopyran-2-carboxamide] it was < 10 nM; in that of `Cc1cc(C)cc(OCC2CN(C34CC(NC(=O)[C@H]5CC(=O)c6cc(Cl)ccc6O5)(C3)C4)C(=O)O2)c1` (stereo partly drawn) [Compound 100, (2R)-6-chloro-N-(3-{5-[(3,5-dimethylphenoxy)methyl]-2-oxo-1,3-oxazolidin-3-yl}bicyclo[1.1.1]pentan-1-yl)-4-oxo-3,4-dihydro-2H-1-benzopyran-2-carboxamide], > 2000 nM.
With `O=C1C[C@H](C(=O)N[C@H]2C[C@H]3CC[C@@H](C2)N3CCCOc2ccc(Cl)cc2)Oc2ccc(Cl)cc21` [Compound 101, (2R)-6-chloro-N-{(1R,3r,5S)-8-[3-(4-chlorophenoxy)propyl]-8-azabicyclo[3.2.1]octan-3-yl}-4-oxo-3,4-dihydro-2H-1-benzopyran-2-carboxamide], the EC50 is > 2000 nM.
Still for that read-out and setting: in the case of `O=C(CO[C@H]1C[C@@H](OC(F)(F)F)C1)NC12CCC(NC(=O)[C@H]3C[C@@H](O)c4cc(Cl)ccc4O3)(CC1)C[C@@H]2O` [Compound 117, (2R,4R)-6-chloro-4-hydroxy-N-[(3S)-3-hydroxy-4-(2-{[(1s,3R)-3-(trifluoromethoxy)cyclobutyl]oxy}acetamido)bicyclo[2.2.2]octan-1-yl]-3,4-dihydro-2H-1-benzopyran-2-carboxamide] it was < 10 nM.
